Source: PubChem BioAssay (NCI)
Values joined by “and” are separate entries in the source; they are usually repeats but may differ in a detail not shown here. Identical values can stand only once.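 Exposure lasted 48 hours, with cells grown in 96-well plates and compounds tested at five concentrations. GI50: concentration for 50% inhibition of growth. TGI: total growth inhibition.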

Tests used:
Experiment in all cases: growth of human tumour cells (NCI), 48 h
COLO 205 colon = tested on: COLO 205 colon
NCI-H460 lung = tested on: NCI-H460 lung
SF-295 CNS = tested on: SF-295 CNS
A549 NSCLC = tested on: A549 NSCLC
MALME-3M melanoma = tested on: MALME-3M melanoma
HOP-92 NSCLC = tested on: HOP-92 NSCLC
SNB-75 CNS = tested on: SNB-75 CNS
OVCAR-8 ovarian = tested on: OVCAR-8 ovarian
DU-145 prostate = tested on: DU-145 prostate
HT29 colon = tested on: HT29 colon

Row | Structure (SMILES) | GI50 (COLO 205 colon) | TGI (COLO 205 colon) | GI50 (NCI-H460 lung) [µM] | GI50 (SF-295 CNS) [µM] | TGI (SF-295 CNS) | GI50 (A549 NSCLC) [µM] | TGI (A549 NSCLC) | GI50 (MALME-3M melanoma) [µM] | TGI (MALME-3M melanoma) | GI50 (HOP-92 NSCLC) [µM] | TGI (HOP-92 NSCLC) | GI50 (SNB-75 CNS) [µM] | TGI (SNB-75 CNS) | GI50 (OVCAR-8 ovarian) [µM] | TGI (OVCAR-8 ovarian) | GI50 (DU-145 prostate) [µM] | TGI (DU-145 prostate) | GI50 (HT29 colon) [µM] | TGI (HT29 colon) | TGI (NCI-H460 lung)
1 | Cc1cccc2c1[nH]c(=O)c1c3ccccc3cn21 | 7.33 µM | 34.8 µM | 1.89 | 2.64 | 25.1 µM | 4.98 | > 100 µM | 8.23 | 24.7 µM | 3.97 | 32.2 µM | 30.7 | > 100 µM | 3.57 | > 100 µM | 5.26 | 17.6 µM | 2.16 | 13.1 µM | 
2 | CCC1=C(CC2NCCc3ccccc32)CC2c3cc(OC)c(OC)cc3CCN2C1 (stereo not drawn) | 1.81 µM and 0.199 µM | 4.13 µM and 0.547 µM | 3.28 | 3.73 | 15 µM and 6.82 µM | 3.49 | 19.9 µM and 4.88 µM | 3.02 | 9.64 µM and 2.75 µM | 1.23 | 9.48 µM and 16.6 µM | 4.09 | 13.8 µM and 2.47 µM | 3.93 | 26.5 µM and 19.2 µM | 3.24 | 12.7 µM and 2.59 µM | 3.31 | 11.8 µM and 4.53 µM | 11.7 µM and 3.57 µM
3 | O=C([O-])CC(=O)[O-].[NH-][C@@H]1CCCC[C@H]1[NH-].[Pt+4] | 54 µM | > 100 µM | 3.17 | 39.4 | > 100 µM | 11.1 | > 100 µM | 6.4 | > 100 µM | > 100 | > 100 µM | > 35.9 | > 100 µM | 24.5 | > 100 µM | 93 | > 100 µM | 6.13 | > 100 µM | > 100 µM
4 | COC(C)C(O)(C(=O)OCC1=CCN2CCC(O)C12)C(C)(C)O (stereo not drawn) |  | > 100 µM |  |  | > 100 µM |  | > 100 µM |  | > 100 µM |  | > 100 µM |  | > 100 µM |  | > 100 µM |  | > 100 µM |  | > 100 µM | > 100 µM
5 | COc1ccc2nc3cc(Cl)ccc3c(Nc3cc(CN4CCCC4)c(O)c(CN4CCCC4)c3)c2n1 | 1.18 µM | 2.48 µM | 0.638 | 2 | 6.51 µM | 1.29 | 22 µM | 1.83 | 3.32 µM | 1.04 | 3.74 µM | 1.38 | 2.7 µM | 0.748 | 13.3 µM | 2.43 | 13.6 µM | 1.42 | 10.5 µM | 2.49 µM
6 | CC1(C)CCC[C@]2(C)c3ccccc3C(=O)CC12 (stereo partly drawn) | 27.4 µM | > 100 µM | 34.9 | 40.7 | > 100 µM | 54.1 | > 100 µM | 29 | > 100 µM | 60.8 | > 100 µM | 34.6 | > 100 µM | 32.1 | > 100 µM | 65.7 | > 100 µM | 43 | > 100 µM | > 100 µM
7 | Nc1cccc2c1C(=O)c1cccc(NC(=O)c3ccccc3)c1C2=O | 0.354 µM | 6.74 µM | 0.371 | 0.166 | 1.35 µM | 0.677 | 4.66 µM | 0.242 | 7.09 µM | 0.34 | 6.72 µM | 0.28 | 3.88 µM | 0.784 | > 38.8 µM | 0.561 | > 22.6 µM | 0.291 | 2.67 µM | > 32.6 µM
8 | COc1cc(C(=O)c2cocc2C(=O)c2ccc3c(c2)OCO3)cc(OC)c1OC |  | 26.5 µM |  |  | 2.48 µM |  | > 68 µM |  | 29.1 µM |  | 35.4 µM |  | 10.4 µM |  | 30 µM |  | 21.2 µM |  | 5.98 µM | 23.4 µM
9 | CC(C)(C)OC(=O)Nc1ccc2c(c1)C(NC(=O)Nc1cccc(C#N)c1)CC(C)(C)O2 (stereo not drawn) | 3.46 µM | 15.3 µM | 3 | 1.94 | > 37.1 µM | 2.9 | > 100 µM | 3.69 | > 68 µM | 4.06 | > 28.3 µM | 7.01 | > 100 µM | 3.13 | 55.7 µM | 6.5 | > 100 µM | 6.71 | > 100 µM | > 100 µM
10 | O=C[C@@H](CO)O[C@H](C=O)n1cnc2c(=O)[nH]cnc21 |  | 992 µM |  |  | 2230 µM |  | 2460 µM |  | 1300 µM |  | 865 µM |  | 2270 µM |  | 2020 µM |  | 1450 µM |  | 1910 µM | 2130 µM
11 | N#CC1=C(N)NC(=O)NC12Nc1ccccc1N2 | > 100 µM | > 100 µM | > 100 | > 100 | > 100 µM | > 100 | > 100 µM | > 100 | > 100 µM | 31.3 | > 100 µM | 45.2 | > 100 µM | > 100 | > 100 µM | > 100 | > 100 µM | > 100 | > 100 µM | > 100 µM
12 | COc1cc(CNc2oc(-c3ccccc3)c(-c3ccccc3)c2C#N)cc(CN2CCN(C)CC2)c1O | 1.98 µM | 4.05 µM | 1.89 | 1.87 | 3.49 µM | 1.97 | 4.16 µM | 1.85 | 3.41 µM | 2.34 | 10.2 µM | 1.33 | 2.94 µM | 2.56 | 10.1 µM | 1.99 | 4.03 µM | 1.92 | 3.99 µM | 3.55 µM
13 | COc1ccc2[nH]c(C(=O)OCc3ccc4c(Cl)cc(Cl)c(O)c4n3)cc2c1 | 1.13 µM | 2.56 µM | 1.75 | 5.12 | 18 µM | 1.67 | 3.4 µM | 1.48 | 2.82 µM | 0.456 | 1.99 µM | 0.251 | 1.78 µM | 1.15 | 2.6 µM | 1.33 | 2.61 µM | 0.778 | 2.32 µM | 3.45 µM
14 | CC/C(=C/c1ccc(OC)cc1OC)[N+](=O)[O-] | 2.04 µM | 4.24 µM | 2.71 | 9.88 | 21.7 µM | 8.37 | 23.4 µM | 1.91 | 4.93 µM | 4.27 | 14.3 µM | 3.28 | 16.6 µM | 3.5 | 11.6 µM | 3.61 | 13.8 µM | 3.37 | 11.1 µM | 7.56 µM
15 | C[C@]12C[C@H](O)[C@H]3[C@@H](CCC4=CC(=O)CC[C@@]43C)[C@@H]1CC[C@@H]2c1csc(-c2ccccc2)n1 |  | > 100 µM |  |  | > 100 µM |  | > 100 µM |  | 97.3 µM |  | > 100 µM |  | > 82.7 µM |  | > 100 µM |  | > 100 µM |  | > 100 µM | > 100 µM
16 | Cc1ccc(C(=O)NC2CC2)cc1-c1ccc2[nH]ncc2c1 | > 25 µM | > 25 µM | > 25 | > 25 | > 25 µM | > 25 | > 25 µM | > 25 | > 25 µM | 6.22 | > 25 µM | > 13 | > 25 µM | > 25 | > 25 µM | > 25 | > 25 µM | > 25 | > 25 µM | > 25 µM
17 | CC1SC(c2ccc(Cl)cc2Cl)N(NC(=O)C(O)c2ccccc2)C1=O (stereo not drawn) | > 100 µM | > 100 µM | 47.7 | 23.7 | > 100 µM | 33.9 | > 100 µM | 70.3 | > 100 µM | 35.9 | > 100 µM | 32.1 | > 100 µM | 63.4 | > 100 µM | > 100 | > 100 µM | 41.9 | > 100 µM | > 100 µM
18 | O=c1[nH]c(=O)n(C2CC(O)C(CO)O2)cc1C(F)(F)F (stereo not drawn) | 25 µM | > 100 µM | 0.337 | 2.79 | > 100 µM | 3.35 | > 100 µM | > 49.9 | > 100 µM | > 100 | > 100 µM | > 40.9 | > 100 µM | 5.12 | > 100 µM | 2.85 | > 100 µM | 33.8 | > 100 µM | > 100 µM
19 | N#Cc1cccc(N2C(=O)C3C4C=CC(C3C2=O)C2C(=O)N(c3cccc(C#N)c3)C(=O)C42)c1 (stereo not drawn) |  | > 63.1 µM |  |  | 36.7 µM |  | > 63.1 µM |  | 99.4 µM |  | 31.6 µM |  | 17.6 µM |  | > 63.1 µM |  | > 100 µM |  | > 63.1 µM | > 63.1 µM
20 | COc1ccc(S(=O)(=O)N(C(C)=O)c2ccccc2/C=C/c2cc[n+]([O-])cc2)cc1 | 0.529 µM | 2.3 µM | 0.412 | 0.385 | > 10 µM | 0.636 | > 10 µM | 3.77 | > 10 µM |  | > 10 µM | 0.25 | > 10 µM | 1.11 | > 10 µM | 0.813 | > 10 µM | 0.422 | > 10 µM | > 10 µM
21 | C=C(C)[C@@H]1CC[C@]2(C(=O)NS(=O)(=O)c3ccccc3)CC[C@]3(C)[C@H](CC[C@@H]4[C@@]5(C)CC[C@H](OC(=O)NS(=O)(=O)c6ccccc6)C(C)(C)[C@@H]5CC[C@]43C)[C@@H]12 | 1.54 µM | 3.08 µM | 1.49 | 0.281 | 2.23 µM | 3.24 | 21.8 µM | 2.09 | 5.32 µM | 1.9 | 4.72 µM | 3.44 | 18.5 µM | 2.89 | 19.1 µM | 3.18 | 13.8 µM | 2.03 | 11 µM | 3.26 µM
22 | COc1cc(NCCCCCN=C(N)NC(N)=NC(C)C)c2ncccc2c1 | 0.468 µM | 1.74 µM | 4.49 | 13 | 29.2 µM | 11.6 | 26.3 µM | 0.43 | 1.91 µM | 1.75 | 9.82 µM | 0.666 | 4.4 µM | 3.08 | 17.2 µM | 10.3 | 22.3 µM | 4.44 | > 42.3 µM | 18.1 µM
23 | O=C(Nc1cccc(C(F)(F)F)c1)Oc1ccc(Cl)c2cccnc12 | 2.48 µM | 6.39 µM | 1.01 | 0.976 | 6.93 µM | 2.43 | 9.03 µM | 1.18 | 3.96 µM | 0.462 | 4.02 µM | 2.59 | 17.8 µM | 0.906 | 6.16 µM | 2.38 | 15.8 µM | 3.9 | 14.1 µM | 5.08 µM
